Common to all, as to type: in vivo, Male Wistar Rats
The subject of experiment [1] is High fat diet induced obesity model in rat. Kind of experiment: High fat diet induced obesity model in rat: serum biochemistry. To be noted: HFD-fed rats, 12 weeks, p.o.; for LDL / Total Cholesterol / Triglyceride: mean; for LDL % Decrease / Total Cholesterol % Decrease / Triglyceride % Decrease: versus disease control. The procedure: (§1) Screening anti-obesity effect of synergistic combination or composition/formulation comprising OEA and other natural ingredients using High fat diet induced obesity model in rat. […] To maintain appropriate conditions, temperature and relative humidity were recorded three times daily. During complete experiment, animals were supplied with the standard certified rat pellet feed (manufactured by VRK Nutritional Solutions, Pune) and drinking water treated by the reverse osmosis ad libitum. […] In order to evaluate the anti-obesity effect, forty-eight (48) male rats were screened and divided into eight groups. For a comparative analysis, the groups were divided as follows: normal control, disease control, treatment groups with individual component, reference standard drug and test composition/formulation of the present invention. […] The animals under consideration were examined for a study period of 12 weeks. Animals in group (G1) were given normal pellet diet, wherein the other groups were on high fat diet. After completion of study for 12 weeks, each group was analyzed in terms of the body weight and other evaluating parameters such as serum biochemistry (triglyceride, total cholesterol and low density lipoprotein cholesterol (LDL), analysis of liver homogenates and histopathology of liver. Obesity is essentially due to an excessive accumulation of the fatty tissues which leads to many diseases, not limited to insulin resistance, diabetes, fatty liver disease, coronary artery disease, hypertension and polycystic ovary syndrome. In obese conditions, the level of total cholesterol, triglyceride and LDL-cholesterol reaches beyond the normal ranges in human beings. Similarly, high fat diet model in rat is universally accepted model to test the efficacy of the drug for the treatment of obesity. In the above experimental procedure, obesity was induced by administration of a high fat diet (HFD) for the period of 12 weeks. For comparison, the normal control group animals were given a normal pellet diet, whereas the remaining groups were fed with the HFD. As a routine experiment, all animals' body weights were observed on weekly basis. Further, various serum biochemistry parameters such as Triglyceride, total cholesterol and LDL-cholesterol were analyzed at the end of the 12-week treatment period. In this regard, at the end of study period, all animals were euthanized and the liver was isolated. The liver homogenate of each individual animal was prepared and subjected for determination of the level of total cholesterol and Triglyceride. Further, part of the liver was used for histopathological investigation purpose.

Experiment [2] shares this test system. Kind of experiment: High fat diet induced obesity model in rat: body weight. To be noted: HFD-fed rats, end of 12 weeks, p.o., mean; for % increase in body weight: in comparison to normal control group; for Body weight: OEA 41, L-Valine 2, Pantethine 31, Orlistat 10 mg/kg. The procedure: as §1, with “purpose. The primary observation during the experiment was monitoring the body weight of animals. Though the animals were tested weekly for the change in the body weight, an average body weight was measured at the end of 12 weeks, and is tabulated in the Table 2.” for “purpose.”

For experiment [3] the test system is unchanged. Kind of experiment: High fat diet induced obesity model in rat: analysis of liver homogenates. To be noted: liver homogenate, HFD-fed rats, 12 weeks, p.o.; for Total Cholesterol / Triglyceride: mean; for Total Cholesterol % Decrease / Triglyceride % Decrease: versus disease control. The procedure:
as §1

Here are results for three compounds from patent US10702487B2, “Pharmaceutical composition for prevention of diet induced obesity” (FRIMLINE PRIVATE LIMITED, priority 2017, dated 2020).

Turning to `CCCCCCCC/C=C\CCCCCCCC(=O)NCCO` [OEA, Oleoylethanolamide], in experiment [1], the LDL worked out at 35.54 mg/dL, the “Total Cholesterol” value came to 105.54 mg/dL, the Triglyceride amounted to 100.05 mg/dL and the “LDL % Decrease” value was 38.70%. Also, in experiment [1], the “Total Cholesterol % Decrease” value amounted to 28.32% and the “Triglyceride % Decrease” value was determined as 18.51%. In experiment [2], the “% increase in body weight” value came to 12.32% and the Body weight amounted to 310.00 gm. In experiment [3], the “Total Cholesterol” value is 74.12 mg/dL, the Triglyceride was determined as 59.98 mg/dL, the “Total Cholesterol % Decrease” value is 17.87% and the “Triglyceride % Decrease” value was 27.74%.
For the compound `CCCCCCCCCCC[C@@H](C[C@@H]1OC(=O)[C@H]1CCCCCC)OC(=O)[C@H](CC(C)C)NC=O` [Orlistat], in experiment [1], the LDL was 25.74 mg/dL, the “Total Cholesterol” value is 84.27 mg/dL, the Triglyceride is 77.62 mg/dL and the “LDL % Decrease” value is listed as 55.60%. In experiment [1], the “Total Cholesterol % Decrease” value was 42.77% and the “Triglyceride % Decrease” value is 36.78%. In addition, in experiment [2], the “% increase in body weight” value is given as 7.97% and the Body weight came out at 298.00 gm. In addition, in experiment [3], the “Total Cholesterol” value was determined as 60.33 mg/dL, the Triglyceride is 44.82 mg/dL, the “Total Cholesterol % Decrease” value was 33.15% and the “Triglyceride % Decrease” value is on record as 46.00%.
`CC(C)[C@H](N)C(=O)O` [L-Valine]: in experiment [1], the LDL came to 55.45 mg/dL, the “Total Cholesterol” value came to 140.00 mg/dL, the Triglyceride turned out to be 115.23 mg/dL and the “LDL % Decrease” value was 4.35%. Further, in experiment [1], the “Total Cholesterol % Decrease” value was 4.92% and the “Triglyceride % Decrease” value came out at 6.15%. Also, in experiment [2], the “% increase in body weight” value was 22.71% and the Body weight turned out to be 338.67 gm. Moreover, in experiment [3], the “Total Cholesterol” value worked out at 85.23 mg/dL, the Triglyceride worked out at 80.02 mg/dL, the “Total Cholesterol % Decrease” value came to 5.56% and the “Triglyceride % Decrease” value is recorded as 3.59%.
